The values that follow come from patent US10004701B2, “Methods and compositions for treating infection” (UNIVERSITY OF ROCHESTER, priority 2012, dated 2018).

What all share (experiment): AK assay 384-well format, Prestwick library screening
Assay [1] relates to E. faecium. The class given is cell-based, Enterococcus faecium. As to conditions: 50 μM final drug concentration; for fold induction at 50 µM: Enterococcus faecium, 3 h.
Assay [2] has as its system S. aureus strain USA300-0114. The class given is cell-based, Staphylococcus aureus. To be noted: 50 μM final drug concentration; for fold induction at 50 µM: Staphylococcus aureus, USA300, 3 h.
Assay [3] relates to K. pneumoniae. It is filed as cell-based, Klebsiella pneumoniae. As to conditions: 50 μM final drug concentration; for fold induction at 50 µM: Klebsiella pneumoniae, 3 h.
For assay [4], the system named is A. baumannii strain 98-37-09. The class given is cell-based, Acinetobacter baumannii. To be noted: 50 μM final drug concentration; for fold induction at 50 µM: Acinetobacter baumannii, 983709, 3 h.
Assay [5] concerns P. aeruginosa. The class given is cell-based, Pseudomonas aeruginosa. As to conditions: 50 μM final drug concentration; for fold induction at 50 µM: Pseudomonas aeruginosa, 3 h.
The test system of assay [6] is E. cloacae. The class given is cell-based, Enterobacter cloacae. To be noted: 50 μM final drug concentration; for fold induction at 50 µM: Enterobacter cloacae, 3 h.
Assay [7] relates to E. coli. It is filed as cell-based, Escherichia coli. To be noted: 50 μM final drug concentration; for fold induction at 50 µM: Escherichia coli, 3 h.
[8] abbreviates: planktonic, cutoff for positive 3-fold increase.
Where [9] appears, read: planktonic, cutoff for positive-scoring molecules 3-fold increase, read-out: AK-based Prestwick Library Screening Results, E. faecium (fold increase in extracellular AK activity).
The mark [10] stands for this setting: planktonic, cutoff for positive-scoring molecules 3-fold increase, read-out: AK-based Prestwick Library Screening Results, S. aureus (fold increase in extracellular AK activity).
The mark [11] stands for this setting: planktonic, cutoff for positive-scoring molecules 3-fold increase, read-out: AK-based Prestwick Library Screening Results, K. pneumoniae (fold increase in extracellular AK activity).
Where [12] appears, read: planktonic, cutoff for positive-scoring molecules 3-fold increase, read-out: AK-based Prestwick Library Screening Results, A. baumannii (fold increase in extracellular AK activity).
[13] abbreviates: planktonic, cutoff for positive-scoring molecules 3-fold increase, read-out: AK-based Prestwick Library Screening Results, P. aeruginosa (fold increase in extracellular AK activity).
[14] abbreviates: planktonic, cutoff for positive-scoring molecules 3-fold increase, read-out: AK-based Prestwick Library Screening Results, E. cloacae (fold increase in extracellular AK activity).
[15] abbreviates: planktonic, cutoff for positive-scoring molecules 3-fold increase, read-out: AK-based Prestwick Library Screening Results, E. coli (fold increase in extracellular AK activity).
[16] abbreviates: cutoff for positive-scoring molecules 3-fold increase.

Counter-ions that a name gives are not always drawn. Like-named read-outs stand apart in the source and are kept apart here.

For `CC[C@]12CCCN3CCc4c(n(c5ccccc45)[C@@](O)(C(=O)OC)C1)[C@@H]32` [Vincamine], the fold induction at 50 µM in assay [1] (384-well format, cutoff for positive-scoring molecules 3-fold increase, read-out: AK-based Prestwick Library Screening Results, E. faecium (increase in extracellular AK activity)) amounted to 0.9; in assay [2] (384-well format, cutoff for positive-scoring molecules 3-fold increase, read-out: AK-based Prestwick Library Screening Results, S. aureus (increase in extracellular AK activity)), 0.7; in assay [3] (384-well format, cutoff for positive-scoring molecules 3-fold increase, read-out: AK-based Prestwick Library Screening Results, K. pneumoniae (increase in extracellular AK activity)), 0.7; in assay [4] (384-well format, cutoff for positive-scoring molecules 3-fold increase, read-out: AK-based Prestwick Library Screening Results, A. baumannii (increase in extracellular AK activity)), 0.9; in assay [5] (384-well format, cutoff for positive-scoring molecules 3-fold increase, read-out: AK-based Prestwick Library Screening Results, P. aeruginosa (increase in extracellular AK activity)), 1; in assay [6] (384-well format, cutoff for positive-scoring molecules 3-fold increase, read-out: AK-based Prestwick Library Screening Results, E. cloacae (increase in extracellular AK activity)), 1.2. In addition, the fold induction at 50 µM in assay [7] (384-well format, cutoff for positive-scoring molecules 3-fold increase, read-out: AK-based Prestwick Library Screening Results, E. coli (increase in extracellular AK activity)) was 0.9.
Take `Cc1c(NC(C)C)c(=O)n(-c2ccccc2)n1C.Cl` [Isopyrin hydrochloride]: the “AK-based Prestwick Library Screening Results, E. faecium (fold increase in extracellular AK activity)” value in assay [1] (setting [8]) is reported as 0.8. For the same molecule, in assay [2] (setting [8]), the “AK-based Prestwick Library Screening Results, S. aureus (fold increase in extracellular AK activity)” value is listed as 0.4. Moreover, in assay [3] (setting [8]), the “AK-based Prestwick Library Screening Results, K. pneumoniae (fold increase in extracellular AK activity)” value is on record as 0.4. The “AK-based Prestwick Library Screening Results, A. baumannii (fold increase in extracellular AK activity)” value in assay [4] (setting [8]) is recorded as 0.3. In assay [5] (setting [8]), the “AK-based Prestwick Library Screening Results, P. aeruginosa (fold increase in extracellular AK activity)” value was found to be 0.4. For the same molecule, the “AK-based Prestwick Library Screening Results, E. cloacae (fold increase in extracellular AK activity)” value in assay [6] (setting [8]) stood at 0.3. For the same molecule, the “AK-based Prestwick Library Screening Results, E. coli (fold increase in extracellular AK activity)” value in assay [7] (setting [8]) worked out at 0.4.
Consider `CC(=O)[C@H]1CC[C@H]2[C@@H]3C=CC4=CC(=O)CC[C@@]4(C)[C@@H]3CC[C@]12C` [Dydrogesterone], for which the fold induction at 50 µM is 1 in assay [1] (setting [9]); 0.7 in assay [2] (setting [10]); 0.8 in assay [3] (setting [11]); 0.8 in assay [4] (setting [12]); 0.9 in assay [5] (setting [13]); 1.2 in assay [6] (setting [14]). In assay [7] (setting [15]), the fold induction at 50 µM was 0.9.
Consider `COc1c2ccoc2nc2c(OC)c(OCC(O)C(C)(C)O)ccc12` (stereo not drawn) [Evoxine], for which the fold induction at 50 µM in assay [1] (setting [9]) was determined as 0.8; in assay [2] (setting [10]), 0.6; in assay [3] (setting [11]), 0.7; in assay [4] (setting [12]), 0.7; in assay [5] (setting [13]), 0.8; in assay [6] (setting [14]) it was 1.1. The fold induction at 50 µM in assay [7] (setting [15]) was determined as 0.7.
On to `CC[N+](C)(CC)CCC[n+]1c(-c2ccccc2)c2cc(N)ccc2c2ccc(N)cc21.[I-].[I-]` [Propidium iodide], for which the “AK-based Prestwick Library Screening Results, E. faecium (fold increase in extracellular AK activity)” value in assay [1] (setting [16]) is given as 0.8. Moreover, the “AK-based Prestwick Library Screening Results, S. aureus (fold increase in extracellular AK activity)” value in assay [2] (setting [16]) amounted to 1.4. The “AK-based Prestwick Library Screening Results, K. pneumoniae (fold increase in extracellular AK activity)” value in assay [3] (setting [16]) was 0.8. The “AK-based Prestwick Library Screening Results, A. baumannii (fold increase in extracellular AK activity)” value in assay [4] (setting [16]) is listed as 1.1. In addition, the “AK-based Prestwick Library Screening Results, P. aeruginosa (fold increase in extracellular AK activity)” value in assay [5] (setting [16]) worked out at 1.0. In addition, the “AK-based Prestwick Library Screening Results, E. cloacae (fold increase in extracellular AK activity)” value in assay [6] (setting [16]) was determined as 1.6. Besides, in assay [7] (setting [16]), the “AK-based Prestwick Library Screening Results, E. coli (fold increase in extracellular AK activity)” value was found to be 1.3.
In the case of (−)-MK 801 hydrogen maleate, in assay [1] ([…]), the “AK-based Prestwick Library Screening Results, E. faecium (fold increase in extracellular AK activity)” value is listed as 1.0. Further, the “AK-based Prestwick Library Screening Results, S. aureus (fold increase in extracellular AK activity)” value in assay [2] ([…]) is 1.1. For the same molecule, in assay [3] ([…]), the “AK-based Prestwick Library Screening Results, K. pneumoniae (fold increase in extracellular AK activity)” value came out at 1.0. Further, in assay [4] ([…]), the “AK-based Prestwick Library Screening Results, A. baumannii (fold increase in extracellular AK activity)” value is recorded as 1.1. Further, the “AK-based Prestwick Library Screening Results, P. aeruginosa (fold increase in extracellular AK activity)” value in assay [5] ([…]) is 1.3. The “AK-based Prestwick Library Screening Results, E. cloacae (fold increase in extracellular AK activity)” value in assay [6] ([…]) stood at 1.9. In addition, the “AK-based Prestwick Library Screening Results, E. coli (fold increase in extracellular AK activity)” value in assay [7] ([…]) turned out to be 1.2.
`CN1CCN(C2=Nc3ccccc3Oc3ccc(Cl)cc32)CC1` [Loxapine succinate]: the fold induction at 50 µM in assay [1] (planktonic E. faecium, 384-well, cutoff for positive-scoring molecules 3-fold increase, read-out: AK-based Prestwick Library Screening Results: E. faecium (increase in extracellular AK activity)) was 0.9; in assay [2] (planktonic S. aureus, 384-well, cutoff for positive-scoring molecules 3-fold increase, read-out: AK-based Prestwick Library Screening Results: S. aureus (increase in extracellular AK activity)), 1.1; in assay [3] (planktonic K. pneumoniae, 384-well, cutoff for positive-scoring molecules 3-fold increase, read-out: AK-based Prestwick Library Screening Results: K. pneumoniae (increase in extracellular AK activity)), 1; in assay [4] (planktonic A. baumannii, 384-well, cutoff for positive-scoring molecules 3-fold increase, read-out: AK-based Prestwick Library Screening Results: A. baumannii (increase in extracellular AK activity)), 1; in assay [5] (planktonic P. aeruginosa, 384-well, cutoff for positive-scoring molecules 3-fold increase, read-out: AK-based Prestwick Library Screening Results: P. aeruginosa (increase in extracellular AK activity)) it was 0.9; in assay [6] (planktonic E. cloacae, 384-well, cutoff for positive-scoring molecules 3-fold increase, read-out: AK-based Prestwick Library Screening Results: E. cloacae (increase in extracellular AK activity)) it was 1.3. For the same molecule, the fold induction at 50 µM in assay [7] (planktonic E. coli, 384-well, cutoff for positive-scoring molecules 3-fold increase, read-out: AK-based Prestwick Library Screening Results: E. coli (increase in extracellular AK activity)) turned out to be 1.
Regarding `CN(C)CCOC(=O)COc1ccc(Cl)cc1` [Meclofenoxate hydrochloride], the fold induction at 50 µM amounted to 1 in assay [1] (planktonic, […], read-out: AK-based Prestwick Library Screening Results, E. faecium (fold increase in extracellular AK activity)); 1.2 in assay [2] (planktonic, […], read-out: AK-based Prestwick Library Screening Results, S. aureus (fold increase in extracellular AK activity)); 1 in assay [3] (planktonic, […], read-out: AK-based Prestwick Library Screening Results, K. pneumoniae (fold increase in extracellular AK activity)); 1 in assay [4] (planktonic, […], read-out: AK-based Prestwick Library Screening Results, A. baumannii (fold increase in extracellular AK activity)); 1.1 in assay [5] (planktonic, […], read-out: AK-based Prestwick Library Screening Results, P. aeruginosa (fold increase in extracellular AK activity)); 1.4 in assay [6] (planktonic, […], read-out: AK-based Prestwick Library Screening Results, E. cloacae (fold increase in extracellular AK activity)). In assay [7] (planktonic, […], read-out: AK-based Prestwick Library Screening Results, E. coli (fold increase in extracellular AK activity)), the fold induction at 50 µM came out at 1.2.
Terbutaline hemisulfate: the “AK-based Prestwick Library Screening Results, E. faecium (fold increase in extracellular AK activity)” value in assay [1] (setting [8]) was found to be 1.0. Besides, the “AK-based Prestwick Library Screening Results, S. aureus (fold increase in extracellular AK activity)” value in assay [2] (setting [8]) was determined as 1.1. The “AK-based Prestwick Library Screening Results, K. pneumoniae (fold increase in extracellular AK activity)” value in assay [3] (setting [8]) is given as 1.3. Besides, the “AK-based Prestwick Library Screening Results, A. baumannii (fold increase in extracellular AK activity)” value in assay [4] (setting [8]) came to 1.1. In assay [5] (setting [8]), the “AK-based Prestwick Library Screening Results, P. aeruginosa (fold increase in extracellular AK activity)” value is listed as 1.1. For the same molecule, the “AK-based Prestwick Library Screening Results, E. cloacae (fold increase in extracellular AK activity)” value in assay [6] (setting [8]) stood at 1.4. The “AK-based Prestwick Library Screening Results, E. coli (fold increase in extracellular AK activity)” value in assay [7] (setting [8]) worked out at 1.2.
